Where a SMILES comes first, the peptide text is derived from it. Bridges are numbered along the chain shown (N, C = ends).
Tests used:
[1] = Telemetric evaluation of portal vein pressure in rats with bile duct ligation (Example 9); format: in vivo, Sprague Dawley rats; details: BDL rats n = 4, 41 μg/kg intravenous bolus
Method: For this study, animals (Sprague Dawley rats (240-300 g at surgery from Charles River Laboratory) were maintained at room temperatures (20 to 22° C.) with 14-hour light, 10-hour dark cycle when not performing study procedures. The mean portal vein pressure (MPVP) reduction efficacy of a peptide of Formula ([…] [SEQ ID NO. 13]; Mpa and C are disulfide bonded; represented as TA-1) was compared to terlipressin in telemetered male with Bile Duct Ligation (BDL) and Sham surgery. On Study Day 1, rats received bile duct ligation surgery and telemetry implantation. The BDL group (n=4) had two stands of silk suture tightened and tied to occlude the bile duct; the sham group (n=3) had sutures loosely tied around the bile duct so that no occlusion occurred. After recovery from surgery, all rats had their portal vein pressure monitored continuously via telemetry until Day 22. […] Terlipressin was administered through intravenous bolus into a lateral tail vein on Day 20 and 21. All animals were dosed under manual restraint. Systolic portal vein pressure and diastolic portal vein pressure were measured to calculate the Mean Portal Vein Pressure ([…] was analyzed by averaging 5 minute intervals for the first 4 hours after dose and thereafter averaging 1 hour intervals after dose until 24 hours. […] Telemetric evaluation of […] [SEQ ID NO. 13] and Terlipressin on portal vein pressure in rats with bile duct ligation. The animal room temperatures were set to maintain 20 to 22° C. A 14-hour light, 10-hour dark cycle was implemented unless interrupted by study procedures. Efficacy was assessed by evaluating mean portal vein pressure (MPVP) at different concentrations of Formula 1 and Terlipressin in telemetered male Sprague Dawley rats (240-300 g at surgery from Charles River Laboratory) with Bile Duct Ligation (BDL) and Sham surgery. On Study Day 1, rats received bile duct ligation surgery and telemetry implantation. The BDL group (n=4) had two stands of silk suture tightened and tied to occlude the bile duct; the sham group (n=3) had sutures loosely tied around the bile duct so that no occlusion occurred. After recovery from surgery, all rats had their portal vein pressure monitored continuously via telemetry until Day 22. […] Formula 1 was administered at different concentrations subcutaneously on Day 15 to 19, and Day 23; Terlipressin was administered through intravenous bolus into a lateral tail vein on Day 20 and 21. All animals were dosed under manual restraint. Systolic portal vein pressure and diastolic portal vein pressure were measured to calculate the Mean Portal Vein Pressure ([…] was analyzed by averaging 5 minute intervals for the first 4 hours after dose and thereafter averaging 1 hour intervals after dose until 24 hours.

[2] = target: V2 (Homo sapiens, UniProt P30518); details: cited from earlier work
Chain of V2 (P30518 whole entry): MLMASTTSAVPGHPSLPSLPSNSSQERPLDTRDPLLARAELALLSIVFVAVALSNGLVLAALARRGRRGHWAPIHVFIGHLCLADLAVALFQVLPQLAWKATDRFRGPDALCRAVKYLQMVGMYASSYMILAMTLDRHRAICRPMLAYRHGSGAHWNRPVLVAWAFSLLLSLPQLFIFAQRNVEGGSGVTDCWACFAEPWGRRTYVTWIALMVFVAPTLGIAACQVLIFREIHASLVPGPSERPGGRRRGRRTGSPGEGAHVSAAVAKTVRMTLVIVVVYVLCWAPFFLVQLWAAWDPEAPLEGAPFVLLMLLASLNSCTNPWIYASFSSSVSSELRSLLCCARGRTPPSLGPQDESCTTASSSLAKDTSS

[3] = Acute diuretic activity of Terlipressin, Tolvaptan and combinations in Wistar rats (Example 5); format: in vivo
Method: The animals were then treated with Terlipressin (Bachem, Torrance CA), Tolvaptan (Fisher Scientific, Waltham, MA) and combination of the two compounds at various concentrations administered subcutaneously (n=4). Test articles were Terlipressin 0.05 mg/Kg and 0.15 mg/Kg, Tolvaptan 0.3 mg/Kg, and 1.0 mg/Kg, Terlipressin 0.05 mg/Kg+Tolvaptan 0.3 mg/Kg, Terlipressin 0.05 mg/Kg+Tolvaptan 1.0 mg/Kg, Terlipressin 0.15 mg/Kg+Tolvaptan 0.3 mg/Kg, and Terlipressin 0.15 mg/Kg+1.0 mg/Kg. Furosemide (Fisher Scientific, Waltham, MA) was used as positive control and dosed at 20 mg/kg via oral gavage. Control dosed vehicle group (9% tween 80; Fisher Scientific, Waltham MA) administered subcutaneously was included and the resulting data was subtracted from individual test article data. After the dose, animals were placed in the metabolic cage (Tecniplast; Province of Varese, Italy) and urine was collected and measured at 2, 4 and 8 hours after the dosing of test articles. Urine volumes were divided by the body weight (pre-dose) times 100 to express in ml/100 g body weight.

[4] = Therapeutic index (NOAEL/NOEL): paleness, lethargy, ataxia observation in Sprague-Dawley rats (Example 7); format: in vivo
Method in brief: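 Male Sprague-Dawley rats, 8–10 weeks, under isoflurane (n=3 or 6), dosed IV or SC with test articles. Paleness judged by ear colour beside untreated controls; lethargy and ataxia scored by observation. Index expressed as NOAEL/NOEL ratio.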

NCCCC[C@H](NC(=O)[C@@H]1CCCN1C(=O)[C@@H]1CSSC[C@H](NC(=O)CNC(=O)CNC(=O)CN)C(=O)N[C@@H](Cc2ccc(O)cc2)C(=O)N[C@@H](Cc2ccccc2)C(=O)N[C@@H](CCC(N)=O)C(=O)N[C@@H](CC(N)=O)C(=O)N1)C(=O)NCC(N)=O [Terlipressin, reference compound] (H-GGGCYFQNCPKG-NH2; disulfide 4-9)
Percent decrease (%) in Mean Portal Vein Pressure (MPVP) from BDL baseline prior to treatment ([1]; Time 1 hr): −23% | Percent decrease (%) in Mean Portal Vein Pressure (MPVP) from BDL baseline prior to treatment ([1]; Time 4 hr): 11.3% | Percent decrease (%) in Mean Portal Vein Pressure (MPVP) from BDL baseline prior to treatment ([1]; Time 7 hr): 10.8% | Percent decrease (%) in Mean Portal Vein Pressure (MPVP) from BDL baseline prior to treatment ([1]; Time 20 hr): 7.3% | V2 or anti-diuretic activity [2]: 3% | Average mL of Urine per 100 gram body weight 8 hours cumulative (n = 4) minus Vehicle group (Tween 80); (SEM) ([3]; Terlipressin 0.05 mg/Kg subcutaneous): 0.70 (0.17) mL per 100 gram body weight | Average mL of Urine per 100 gram body weight 8 hours cumulative (n = 4) minus Vehicle group (Tween 80); (SEM) ([3]; Terlipressin 0.15 mg/Kg subcutaneous): 1.32 (0.23) mL per 100 gram body weight | Paleness (Duration, hrs; SD) ([4]; I.V., at the Marked adverse effect dose): (3.56 ± 0.06) hrs | Paleness (Duration, hrs; SD) ([4]; I.V., at the Mild adverse effect dose): (2.82 ± 0.03) hrs | Paleness (Duration, hrs; SD) ([4]; I.V., at the NOAEL dose): (1.3 ± 0.05) hrs | Paleness (Duration, hrs; SD) ([4]; I.V., at the NOEL dose): None observed | Highest dose with no-observed effect level or paleness (NOEL) ([4]; I.V., rat): 0.005 mg/kg | NOAEL at 24 h ([4]; male, Sprague-Dawley, in vivo, iv, I.V., rat, read-out: Highest dose with no-observed adverse effect level without lethargy (NOAEL)): 0.05 mg/kg | Marked adverse effect (Lowest dose first showed Ataxia) ([4]; rat, in vivo, iv): 1.5 mg/kg | Mild adverse effect (Lowest dose first showed Lethargy) ([4]; rat, in vivo, iv): 0.15 mg/kg

From US12410211B2, “V1A receptor partial agonist and method of use” (PharmaIN Corporation, priority 2020, dated 2025)
